Data set [1] has as its target T1, 1-phosphatidylinositol 3-phosphate 5-kinase (Homo sapiens, UniProt Q9Y2I7). Briefly: Inhibition of human GST tagged PIKFYVE (1493 to end residues) expressed in baculovirus-infected Sf9 cells using PI(3)P:PS as substrate incubated for 60 mins in presence of ATP by ADP-Glo assay.
In data set [2] the target is T1, 1-phosphatidylinositol 3-phosphate 5-kinase. Briefly: Inhibition of PIKFYVE in HEK293 cells by NanoBRET assay. It is filed as cell-based.
The subject of another data set is Murine hepatitis virus. Briefly: microbe, parasite or virus in culture. The settings on record: Murine coronavirus, Astrocytoma delayed brain tumor (DBT) cell.
The test system of the next data set is SARS-CoV-2. Briefly: microbe, parasite or virus in culture. The settings on record: Severe acute respiratory syndrome coronavirus 2, A549-ACE2.
The subject of data set [3] is Calu-3. Briefly: Inhibition of lentivirus pseudotyped with SARS-CoV-2 spike glycoprotein uptake in human Calu-3 cells at 1 uM preincubated for 1 hr prior to viral infection for 12 hrs by fluorescence based analysis. It is filed as functional, cell-based.
The test system of the next data set is SH-SY5Y. Briefly: Induction of lysosome dysfunction in human SH-SY5Y cells at 5 uM incubated for 24 hrs by lyso-tracker red DND-99 based confocal microscopic method. Type of data set: functional, cell-based.
The nature of data set [4]: (§1) Inhibition of His-6 tagged SARS-CoV-2 spike protein uptake in human Calu-3 cells at 1 uM incubated for 1 hr by fluorescence based analysis relative control. It is filed as functional.
Data set [5] can be described thus: (§2) Inhibition of His-6 tagged SARS-CoV-2 spike protein uptake in human Caco-2 cells at 1 uM incubated for 1 hr by fluorescence based analysis relative control. Type of data set: functional.
The nature of data set [6]: Microsomal stability in CD-1 mouse liver microsomal assessed as parent compound remaining preincubated for 5 mins followed by NADPH addition measured after 30 mins by LC-TOFMS. It is filed as ADME, subcellular. The following applies: liver microsomes, time 35 min, read-out: Stability.
In data set [7] the target is Serine/threonine-protein kinase TAO1 (Homo sapiens) (UniProt Q7L7X3). Briefly: Inhibition of human wild type TAOK1 assessed as remaining activity at 1 uM by MRC screening assay relative to control.
The target in data set [8] is Dual serine/threonine and tyrosine protein kinase (Homo sapiens) (UniProt Q6XUX3). Briefly: Inhibition of human wild type full length RIPK5 (M1 to T929 residues) expressed in mammalian expression system assessed as remaining activity at 1 uM by Kinomescan assay relative to control.
In data set [9] the target is cAMP-dependent protein kinase catalytic subunit PRKX (Homo sapiens) (UniProt P51817). Briefly: Inhibition of human wild type partial length PRKX (M1 to F358 residues) expressed in bacterial expression system assessed as remaining activity at 1 uM by Kinomescan assay relative to control.
The target of data set [10] is Mitogen-activated protein kinase kinase kinase 19 (Homo sapiens) (UniProt Q56UN5). Briefly: Inhibition of wild-type human partial length YSK4 (T1019 to H1328 residues) expressed in mammalian expression system assessed as residual binding level at 1 uM by Kinomescan method relative to control.
Data set [11] addresses Phosphatidylinositol 4-phosphate 5-kinase type-1 gamma (Homo sapiens) (UniProt O60331). Briefly: Inhibition of human wild type full length PIP5K1C (M1 to T668 residues) expressed in mammalian expression system assessed as remaining activity at 1 uM by Kinomescan assay relative to control.
The target of data set [12] is Dual specificity mitogen-activated protein kinase kinase 4 (Homo sapiens) (UniProt P45985). Briefly: Inhibition of human wild type partial length MEK4 (S84 to D399 residues) expressed in mammalian expression system assessed as remaining activity at 1 uM by Kinomescan assay relative to control.
Data set [13] has as its target Phosphatidylinositol 5-phosphate 4-kinase type-2 gamma (Homo sapiens) (UniProt Q8TBX8). Briefly: Inhibition of human wild type full length PIP5K2C (M1 to A421 residues) expressed in mammalian expression system assessed as remaining activity at 1 uM by Kinomescan assay relative to control.
Data set [14] has as its target Serine/threonine-protein kinase PAK 5 (Homo sapiens) (UniProt Q9P286). Briefly: Inhibition of human wild type PAK7 expressed in Escherichia coli assessed as remaining activity using RRRLSFAEPG peptide substrate at 1 uM by MRC screening assay relative to control.
Data set [15] has as its target Citron Rho-interacting kinase (Homo sapiens) (UniProt O14578). Briefly: Inhibition of wild-type human partial length CIT (M68 to E432 residues) expressed in bacterial expression system assessed as residual binding level at 1 uM by Kinomescan method relative to control.
Data set [16] addresses Mitogen-activated protein kinase kinase kinase 2 (Homo sapiens) (UniProt Q9Y2U5). Briefly: Inhibition of wild-type human partial length MAP3K2 (S315 to H619 residues) expressed in mammalian expression system assessed as residual binding level at 1 uM by Kinomescan method relative to control.
Data set [17] has as its target Mitogen-activated protein kinase kinase kinase kinase 5 (Homo sapiens) (UniProt Q9Y4K4). Briefly: Inhibition of human wild type MAP4K5 assessed as remaining activity at 1 uM by MRC screening assay relative to control.
For data set [18], the target named is Serine/threonine-protein kinase TAO2 (Homo sapiens) (UniProt Q9UL54). Briefly: Inhibition of human wild type partial length TAOK2 (M1 to A320 residues) expressed in mammalian expression system assessed as remaining activity at 1 uM by Kinomescan assay relative to control.
Data set [19] addresses Serine/threonine-protein kinase PAK 6 (Homo sapiens) (UniProt Q9NQU5). Briefly: Inhibition of human wild type PAK6 assessed as remaining activity at 1 uM by MRC screening assay relative to control.
The target of data set [20] is Mitogen-activated protein kinase kinase kinase 3 (Homo sapiens) (UniProt Q99759). Briefly: Inhibition of human wild type partial length MAP3K3 (E320 to Y626 residues) expressed in mammalian expression system assessed as remaining activity at 1 uM by Kinomescan assay relative to control.
Data set [21] deals with Tyrosine-protein kinase JAK2 (Homo sapiens) (UniProt O60674). Briefly: Inhibition of human wild type JAK2 (JH1) domain assessed as remaining activity at 1 uM by MRC screening assay relative to control.
The target in data set [22] is Serine/threonine-protein kinase PAK 4 (Homo sapiens) (UniProt O96013). Briefly: Inhibition of human wild type PAK4 assessed as remaining activity at 1 uM by MRC screening assay relative to control.
Data set [23] addresses Myosin light chain kinase family member 4 (Homo sapiens) (UniProt Q86YV6). Briefly: Inhibition of human wild type […] length MYLK4 (V79 to S380 residues) expressed in bacterial expression system assessed as remaining activity at 1 uM by Kinomescan assay relative to control.
In data set [24] the target is Mitogen-activated protein kinase kinase kinase kinase 2 (Homo sapiens) (UniProt Q12851). Briefly: Inhibition of human wild type partial length MAP4K2 (M1 to G318 residues) expressed in mammalian expression system assessed as remaining activity at 1 uM by Kinomescan assay relative to control.
In data set [25] the target is Serine/threonine-protein kinase TAO3 (Homo sapiens) (UniProt Q9H2K8). Briefly: Inhibition of human wild type partial length TAOK3 (M1 to T316 residues) expressed in mammalian expression system assessed as remaining activity at 1 uM by Kinomescan assay relative to control.
Data set [26] has as its target Microtubule-associated serine/threonine-protein kinase 1 (Homo sapiens) (UniProt Q9Y2H9). Briefly: Inhibition of wild-type human partial length MAST1 (S346 to V730 residues) expressed in mammalian expression system assessed as residual activity at 1 uM by Kinomescan method relative to control.
Data set [27] concerns Calu-3. The description is as §1. It is filed as functional.
In the next data set the test system is Caco-2. The data set is described as §2. Type of data set: functional.

The source made the active and inactive calls. No cut-off for these calls is given here.

T1 sequence (Q9Y2I7 whole entry): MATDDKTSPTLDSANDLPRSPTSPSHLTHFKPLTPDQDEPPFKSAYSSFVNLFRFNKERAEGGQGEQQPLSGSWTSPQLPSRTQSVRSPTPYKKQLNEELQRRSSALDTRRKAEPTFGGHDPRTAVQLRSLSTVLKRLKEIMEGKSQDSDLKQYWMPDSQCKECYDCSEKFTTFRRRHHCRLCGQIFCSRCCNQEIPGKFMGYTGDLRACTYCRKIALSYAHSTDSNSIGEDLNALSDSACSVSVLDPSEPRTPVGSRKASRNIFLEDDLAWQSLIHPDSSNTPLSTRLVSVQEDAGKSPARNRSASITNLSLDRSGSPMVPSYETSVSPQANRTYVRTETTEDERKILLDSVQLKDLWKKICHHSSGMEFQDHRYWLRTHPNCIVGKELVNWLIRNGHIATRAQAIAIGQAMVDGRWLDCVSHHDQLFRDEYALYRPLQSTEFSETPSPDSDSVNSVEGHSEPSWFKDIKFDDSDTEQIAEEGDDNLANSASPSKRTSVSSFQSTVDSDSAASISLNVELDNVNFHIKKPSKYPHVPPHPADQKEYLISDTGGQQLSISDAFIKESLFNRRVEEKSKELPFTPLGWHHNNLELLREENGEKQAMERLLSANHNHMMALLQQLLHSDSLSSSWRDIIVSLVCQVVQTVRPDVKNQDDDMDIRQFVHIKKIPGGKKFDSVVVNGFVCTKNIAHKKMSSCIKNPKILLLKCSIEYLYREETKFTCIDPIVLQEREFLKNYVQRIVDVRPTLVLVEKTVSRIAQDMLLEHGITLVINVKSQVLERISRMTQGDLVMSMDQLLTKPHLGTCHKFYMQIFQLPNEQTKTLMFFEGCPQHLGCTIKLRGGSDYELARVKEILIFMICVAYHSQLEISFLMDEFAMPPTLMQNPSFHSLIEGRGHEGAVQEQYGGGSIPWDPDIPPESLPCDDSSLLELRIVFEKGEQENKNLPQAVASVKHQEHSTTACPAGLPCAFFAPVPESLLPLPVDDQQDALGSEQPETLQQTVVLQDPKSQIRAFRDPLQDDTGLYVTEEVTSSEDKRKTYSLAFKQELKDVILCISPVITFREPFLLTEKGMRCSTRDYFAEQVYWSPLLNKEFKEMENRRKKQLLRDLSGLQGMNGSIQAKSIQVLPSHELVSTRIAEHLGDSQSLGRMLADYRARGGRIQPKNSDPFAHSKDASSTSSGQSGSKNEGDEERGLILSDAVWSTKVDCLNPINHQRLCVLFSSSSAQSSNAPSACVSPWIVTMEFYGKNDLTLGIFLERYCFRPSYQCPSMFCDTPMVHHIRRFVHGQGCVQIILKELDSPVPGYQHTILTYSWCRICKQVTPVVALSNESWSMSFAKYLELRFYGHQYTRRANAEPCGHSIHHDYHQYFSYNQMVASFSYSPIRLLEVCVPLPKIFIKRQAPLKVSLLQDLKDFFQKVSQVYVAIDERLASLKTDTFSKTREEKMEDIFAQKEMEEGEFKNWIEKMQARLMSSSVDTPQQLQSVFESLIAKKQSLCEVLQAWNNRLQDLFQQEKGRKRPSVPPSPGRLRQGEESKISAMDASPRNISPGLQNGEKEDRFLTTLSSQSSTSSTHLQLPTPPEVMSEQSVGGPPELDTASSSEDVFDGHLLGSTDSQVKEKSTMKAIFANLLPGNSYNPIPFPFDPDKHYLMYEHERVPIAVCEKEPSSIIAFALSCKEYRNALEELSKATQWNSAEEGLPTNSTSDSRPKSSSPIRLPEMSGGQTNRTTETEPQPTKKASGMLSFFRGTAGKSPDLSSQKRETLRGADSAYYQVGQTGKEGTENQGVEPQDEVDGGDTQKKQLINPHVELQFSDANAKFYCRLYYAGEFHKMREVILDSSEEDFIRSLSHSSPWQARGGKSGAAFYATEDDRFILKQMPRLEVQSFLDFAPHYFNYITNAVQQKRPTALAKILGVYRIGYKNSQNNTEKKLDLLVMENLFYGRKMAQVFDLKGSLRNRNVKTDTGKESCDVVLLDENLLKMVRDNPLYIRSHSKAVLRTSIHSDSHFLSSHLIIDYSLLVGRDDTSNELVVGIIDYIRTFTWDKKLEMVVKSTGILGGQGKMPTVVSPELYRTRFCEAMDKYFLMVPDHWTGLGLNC
Chain of Dual specificity mitogen-activated protein kinase kinase 4 (Homo sapiens) (P45985 whole entry, the tested form may be a part): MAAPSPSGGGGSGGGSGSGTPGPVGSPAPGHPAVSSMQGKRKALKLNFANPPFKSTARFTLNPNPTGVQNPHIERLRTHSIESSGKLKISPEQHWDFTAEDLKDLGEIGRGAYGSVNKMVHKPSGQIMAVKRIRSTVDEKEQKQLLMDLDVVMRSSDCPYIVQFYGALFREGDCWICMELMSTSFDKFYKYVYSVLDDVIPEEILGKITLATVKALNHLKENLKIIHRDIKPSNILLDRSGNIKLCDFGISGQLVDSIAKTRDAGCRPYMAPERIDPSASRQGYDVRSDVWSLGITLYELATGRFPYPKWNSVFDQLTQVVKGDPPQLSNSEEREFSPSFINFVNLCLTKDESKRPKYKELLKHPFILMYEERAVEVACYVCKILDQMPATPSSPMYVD
Chain of Microtubule-associated serine/threonine-protein kinase 1 (Homo sapiens) (Q9Y2H9 whole entry, looked up, the tested form may be a part): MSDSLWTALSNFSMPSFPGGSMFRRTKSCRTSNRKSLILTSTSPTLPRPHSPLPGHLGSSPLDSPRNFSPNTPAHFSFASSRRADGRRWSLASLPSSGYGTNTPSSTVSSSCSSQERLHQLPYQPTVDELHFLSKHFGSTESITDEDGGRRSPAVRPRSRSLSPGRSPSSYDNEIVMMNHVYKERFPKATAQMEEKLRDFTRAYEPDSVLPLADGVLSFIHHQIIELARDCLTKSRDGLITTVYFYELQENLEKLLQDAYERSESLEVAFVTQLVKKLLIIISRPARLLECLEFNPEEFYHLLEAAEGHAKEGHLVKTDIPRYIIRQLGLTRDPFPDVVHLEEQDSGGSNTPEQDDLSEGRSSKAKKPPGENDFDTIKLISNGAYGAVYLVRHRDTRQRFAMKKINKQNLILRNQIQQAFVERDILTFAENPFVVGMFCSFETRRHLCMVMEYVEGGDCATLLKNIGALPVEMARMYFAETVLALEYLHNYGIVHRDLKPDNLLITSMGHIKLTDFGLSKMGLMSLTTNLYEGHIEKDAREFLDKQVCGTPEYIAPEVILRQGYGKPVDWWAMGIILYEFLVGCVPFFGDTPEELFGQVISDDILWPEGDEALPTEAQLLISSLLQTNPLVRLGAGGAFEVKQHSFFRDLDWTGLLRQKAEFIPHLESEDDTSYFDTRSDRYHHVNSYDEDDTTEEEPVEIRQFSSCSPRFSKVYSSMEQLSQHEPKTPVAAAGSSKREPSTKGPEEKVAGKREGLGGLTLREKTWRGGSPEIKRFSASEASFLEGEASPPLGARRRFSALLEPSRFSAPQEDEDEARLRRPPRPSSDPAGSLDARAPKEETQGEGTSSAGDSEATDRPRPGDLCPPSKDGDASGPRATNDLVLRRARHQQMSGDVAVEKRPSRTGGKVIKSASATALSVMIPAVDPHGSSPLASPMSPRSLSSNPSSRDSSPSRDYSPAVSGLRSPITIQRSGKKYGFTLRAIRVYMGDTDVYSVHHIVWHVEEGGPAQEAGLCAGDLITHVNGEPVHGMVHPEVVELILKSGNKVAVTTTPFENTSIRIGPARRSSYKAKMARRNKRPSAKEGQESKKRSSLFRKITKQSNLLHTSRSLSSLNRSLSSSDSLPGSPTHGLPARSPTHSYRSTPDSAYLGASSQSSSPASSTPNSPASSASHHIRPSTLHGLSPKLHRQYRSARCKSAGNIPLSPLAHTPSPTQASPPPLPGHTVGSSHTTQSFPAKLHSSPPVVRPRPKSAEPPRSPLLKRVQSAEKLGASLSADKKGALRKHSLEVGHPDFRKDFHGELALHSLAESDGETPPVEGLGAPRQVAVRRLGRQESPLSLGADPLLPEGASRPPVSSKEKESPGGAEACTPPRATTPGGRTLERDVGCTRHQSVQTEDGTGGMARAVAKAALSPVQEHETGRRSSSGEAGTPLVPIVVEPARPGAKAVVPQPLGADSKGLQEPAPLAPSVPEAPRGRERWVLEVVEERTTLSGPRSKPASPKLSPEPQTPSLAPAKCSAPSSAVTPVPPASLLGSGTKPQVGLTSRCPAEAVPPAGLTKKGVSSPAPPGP
Chain of Serine/threonine-protein kinase TAO3 (Homo sapiens) (Q9H2K8 whole entry, the tested form may be a part): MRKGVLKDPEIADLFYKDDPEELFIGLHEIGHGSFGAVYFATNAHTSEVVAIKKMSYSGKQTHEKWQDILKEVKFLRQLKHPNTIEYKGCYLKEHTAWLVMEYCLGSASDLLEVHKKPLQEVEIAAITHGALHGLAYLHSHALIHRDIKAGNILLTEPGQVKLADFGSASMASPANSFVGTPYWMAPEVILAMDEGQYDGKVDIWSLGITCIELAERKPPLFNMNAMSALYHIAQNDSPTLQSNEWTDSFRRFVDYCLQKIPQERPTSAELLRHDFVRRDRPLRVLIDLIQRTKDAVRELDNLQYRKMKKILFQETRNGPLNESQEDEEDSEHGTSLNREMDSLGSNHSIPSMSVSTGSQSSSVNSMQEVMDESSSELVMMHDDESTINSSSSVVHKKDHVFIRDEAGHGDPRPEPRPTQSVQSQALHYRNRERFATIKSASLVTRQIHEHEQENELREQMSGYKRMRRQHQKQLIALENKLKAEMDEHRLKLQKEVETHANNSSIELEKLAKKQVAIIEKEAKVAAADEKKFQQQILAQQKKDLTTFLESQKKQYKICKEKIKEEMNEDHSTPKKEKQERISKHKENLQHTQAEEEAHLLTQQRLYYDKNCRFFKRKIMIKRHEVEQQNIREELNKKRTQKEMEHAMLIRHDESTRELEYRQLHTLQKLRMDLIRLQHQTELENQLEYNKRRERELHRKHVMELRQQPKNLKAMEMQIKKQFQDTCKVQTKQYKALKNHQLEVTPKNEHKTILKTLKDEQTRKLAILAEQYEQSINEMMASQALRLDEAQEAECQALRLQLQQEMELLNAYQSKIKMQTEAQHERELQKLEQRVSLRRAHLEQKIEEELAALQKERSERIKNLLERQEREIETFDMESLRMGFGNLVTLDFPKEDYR
Description for Murine hepatitis virus: Antiviral activity against MHV-nLuc infected in DBT cells assessed as effect on cell viability by LDH assay
Description for SARS-CoV-2: Antiviral activity against SARS-CoV-2 infected in human A549-ACE2 cells assessed as effect on cell viability pretreated with compound for 1 hr followed by viral infection measured after 2 hrs by Nano-Glo reagent based LDH assay

As to `Cn1cc(-c2ccc3[nH]c4c(c3c2)-c2nc(N)ncc2CCC4)cn1`, the IC50 in data set [1] is 26 nM; in data set [2] it was 1560 nM; with Murine hepatitis virus, 666 nM; in the data set with Murine hepatitis virus (read-out: pIC50 (converted)) it was 661 nM.
For `CC(C)C(O)C#Cc1ccc2[nH]c3c(c2c1)-c1nc(N)ncc1CC3` (stereo not given), the results for the IC50 (in data set [2]; with Murine hepatitis virus; with Murine hepatitis virus (read-out: pIC50 (converted))) were 1170 nM, 1920 nM and 1910 nM, respectively.
The molecule `Nc1ncc2c(n1)-c1c([nH]c3ccc(-c4ccc(F)cc4)cc13)CCCC2` returned an IC50 in data set [2] of 2560 nM.
As to `Cc1cccc(/C=N/Nc2cc(N3CCOCC3)n3nc(-c4ccncc4)cc3n2)c1`, the IC50 in the data set with Murine hepatitis virus was 40.4 nM; in the data set on Murine hepatitis virus (read-out: pIC50 (converted)), 40.7 nM.
On to `Nc1ncc2c(n1)-c1c([nH]c3ccc(-c4ccc(F)cc4)cc13)CC2`, for which the IC50 in data set [1] is 8.2 nM; in data set [2], 380 nM; with Murine hepatitis virus it was 713 nM; in the data set on Murine hepatitis virus (read-out: pIC50 (converted)), 708 nM.
In turn, `Nc1ncc2c(n1)-c1c([nH]c3ccc(C#CC4CC4)cc13)CC2` yielded an IC50 in data set [2] of 300 nM.
`Nc1ncc2c(n1)-c1c([nH]c3ccc(-c4ccc(F)cc4)cc13)CCC2`: the IC50 is 9.3 nM in data set [1]; 11.4 nM in [2]; 73.3 nM in the data set on SARS-CoV-2; 71 nM in the data set with Murine hepatitis virus; 70.8 nM with Murine hepatitis virus (read-out: pIC50 (converted)). The inhibition result with Calu-3 [3] is “Active”. In the data set on SH-SY5Y, the result was Active.
On to `Cn1cc(-c2ccc3[nH]c4c(c3c2)-c2nc(N)ncc2CC4)cn1`, for which the IC50 is 34 nM in data set [1], 4970 nM in data set [2], 5350 nM with Murine hepatitis virus and 5370 nM in the data set on Murine hepatitis virus (read-out: pIC50 (converted)).
The like results for `CC(C)(O)C#Cc1ccc2[nH]c3c(c2c1)-c1nc(N)ncc1CCCC3` were, in that order, 61 nM, 2450 nM, 8470 nM and 8510 nM.
The molecule `Nc1ncc2c(n1)-c1c([nH]c3ccc(C#Cc4ccncc4)cc13)CC2` had an IC50 in [2] of 2980 nM.
With `Nc1ncc2c(n1)-c1c([nH]c3ccc(C#Cc4ccncc4)cc13)CCCC2`, the values for the IC50 in data set [1] and in [2] were 580 nM and 5290 nM, respectively.
In [2], `CN(C)CC#Cc1ccc2[nH]c3c(c2c1)-c1nc(N)ncc1CC3` showed an IC50 of 123 nM.
Molecule `CCC(CC)COC(=O)[C@H](C)N[P@](=O)(OC[C@H]1O[C@@](C#N)(c2ccc3c(N)ncnn23)[C@H](O)[C@@H]1O)Oc1ccccc1` had an IC50 with SARS-CoV-2 of 86.4 nM.
Consider `Nc1ncc2c(n1)-c1c([nH]c3ccc(C#Cc4ccncc4)cc13)CCC2`, for which the IC50 in data set [1] is 22 nM; in data set [2] it was 885 nM; with Murine hepatitis virus, 485 nM; with Murine hepatitis virus (read-out: pIC50 (converted)), 490 nM.
The like results for `Cn1cncc1C#Cc1ccc2[nH]c3c(c2c1)-c1nc(N)ncc1CC3` were, in that order, 77 nM, above 10000 nM, 8050 nM and 8130 nM.
`CC(C)C(O)C#Cc1ccc2[nH]c3c(c2c1)-c1nc(N)ncc1CCC3` (stereo not given) returned an IC50 in data set [2] of 45.7 nM.
As to `Cn1cncc1C#Cc1ccc2[nH]c3c(c2c1)-c1nc(N)ncc1CCCC3`, the IC50 in data set [1] is 290 nM; in data set [2] it was above 10000 nM.
On to `CC(C)(O)C#Cc1ccc2[nH]c3c(c2c1)-c1nc(N)ncc1CC3`, for which the IC50 in data set [2] was determined as 220 nM.
As to `CN(C)CC#Cc1ccc2[nH]c3c(c2c1)-c1nc(N)ncc1CCC3`, the inhibition at 1 µM in [4] is above 75%; in data set [5] it was above 91%. Also, the inhibition result in the data set on Calu-3 [3] was “Active”. Further, the result in the data set on SH-SY5Y was Active. The remaining at 0.5 h in [6] came to 12.6%.
Turning to `CC(C)(O)C#Cc1ccc2[nH]c3c(c2c1)-c1nc(N)ncc1CCC3`, the Activity in data set [7], in data set [8], in data set [9], in data set [10], in data set [11] and in [12] was below 10% in each case. Also, the Activity in data set [13], in [14], in [15], in [16], in [17] and in data set [18] was below 10% in each case. Also, the Activity in [19], in data set [20], in data set [21], in data set [22], in [23] and in data set [24] was below 10% each time. The Activity in data set [25] is below 10%.
With `Nc1ncc2c(n1)-c1c([nH]c3ccc(C#CC4CC4)cc13)CCCC2`, the IC50 in data set [1] is 75 nM; in data set [2] it was 700 nM; in the data set with Murine hepatitis virus, 1800 nM; with Murine hepatitis virus (read-out: pIC50 (converted)), 1780 nM.
In the case of `Nc1ncc2c(n1)-c1c([nH]c3ccc(C4CC4)cc13)CCCC2`, the IC50 in the data set on SARS-CoV-2, in the data set with Murine hepatitis virus and with Murine hepatitis virus (read-out: pIC50 (converted)) was above 10000 nM in each case. Besides, the Activity in data set [26] stood at 32%.
As to `CN(C)CC#Cc1ccc2[nH]c3c(c2c1)-c1nc(N)ncc1CCCC3`, the IC50 in data set [1] worked out at 430 nM; in [2], 683 nM.
In the case of `Cc1cccc(/C=N/Nc2cc(N3CCOCC3)nc(OCCc3ccccn3)n2)c1`, the inhibition result with Calu-3 [27], with Caco-2 and in the data set on Calu-3 [3] was “Active” throughout. In addition, the result in the data set on SH-SY5Y was Active.
